Experimental data reported in PMC9130233, “An inhibitor of RORγ for chronic pulmonary obstructive disease treatment” (Scientific Reports, 2022).
Several values for one entry are separate records, joined by “and”; a condition that tells them apart may be missing. Equal values may be shown once.

Columns and labels:
[1] = biological target: non RORγ isoforms and other major nuclear receptors; experiment: TR-FRET binding assays, other ROR isoforms and major nuclear receptors (summary)
Text: (§1) Based on the homology of the ligand binding domains, 3 different isoforms of ROR (hRORα, hRORβ and hRORγ) are reported. Small variations in the LBD regions possibly lead to differences in competitive binding between the nuclear receptors of the ROR isoforms (Fig. 1b). Similar to the assessment of RORγ binding assay, TR-FRET binding assays were also used to assess the affinity of PCCR-1 for other ROR isoforms. […] This was reconfirmed in cellular functional assays for the selected isoforms and nuclear receptors using Gal4 DBD with luciferase reporter system from Indigo (PA, USA). […] In addition, both cellular agonist and antagonist effects as well as for enzyme activity were evaluated with a known reference compound for each target, using a radiolabeled method (Eurofins Cerep, France, Table 1).
For selectivity, the ROR isoforms RORα, FXR, LXRα, LXRβ, RXR, RARα were incubated with compound for 60 min at 22 °C followed by detection mix containing respective agonist (All trans retinoic acid for RARα, T0901317 for LXRα, LXRβ, 9-cis Retinoic acid for RXR, GW-4064 for FXR) and coactivator peptide (FD22 for RORα, PGC1α for RXR, RARα, TRAP220 for LXRα, LXRβ, SRC2-2 for FXR) and Tb-anti GST antibody prepared in assay buffer were added into a 384-well white plate. […]

[2] = system: RXR; experiment: TR-FRET selectivity binding assay, RXR
Text: as §1
(§2) For selectivity, the ROR isoforms RORα, FXR, LXRα, LXRβ, RXR, RARα were incubated with compound for 60 min at 22 °C followed by detection mix containing respective agonist (All trans retinoic acid for RARα, T0901317 for LXRα, LXRβ, 9-cis Retinoic acid for RXR, GW-4064 for FXR) and coactivator peptide (FD22 for RORα, PGC1α for RXR, RARα, TRAP220 for LXRα, LXRβ, SRC2-2 for FXR) and Tb-anti GST antibody prepared in assay buffer were added into a 384-well white plate. Reading taken after overnight incubation and the data analysis done as per the protocol mentioned in RORγt-LBD and co-activator ligand binding assay.

[3] = system: T1, LXRβ; experiment: TR-FRET selectivity binding assay, LXRβ
T1 construct: purchased Invitrogen
Text: as §1, §2

[4] = biological target: T2, human RORγ LBD (Homo sapiens, UniProt P51449); experiment: RORγt-LBD co-activator ligand binding TR-FRET assay, human; settings: n = 15
T2 construct: RORC-LBD region 229-497aa; made in house; host or cells: Escherichia coli BL21-DE3
T2 sequence (P51449 250-518): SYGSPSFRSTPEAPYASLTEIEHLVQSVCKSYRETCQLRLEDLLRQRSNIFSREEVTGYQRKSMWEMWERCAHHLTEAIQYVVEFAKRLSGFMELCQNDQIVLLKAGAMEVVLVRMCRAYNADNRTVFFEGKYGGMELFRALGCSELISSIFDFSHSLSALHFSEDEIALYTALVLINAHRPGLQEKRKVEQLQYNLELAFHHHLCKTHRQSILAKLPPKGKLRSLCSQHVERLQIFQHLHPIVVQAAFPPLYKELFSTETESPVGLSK
Text: To identify small molecule RORγ inhibitors, we conducted in vitro screening using a TR-FRET binding assay to determine the inhibition of RORγ with a series of different compounds. With extensive effort and from hit identification to lead optimization, PCCR-1 was identified[29] (Fig. 1A). Based on the homology of the ligand binding domains (LBD) between different ROR isoforms (hRORα, hRORβ and hRORγ), slight variations have been observed in the LBD regions which possibly lead to differences in competitive binding between the isoforms (Fig. 1B). Simultaneous binding of a tracer and antibody results in an increase in fluorescence resonance energy transfer (FRET), which decreases with displacement of the tracer upon inhibitor binding.
The human and mouse RORγt cDNA clones were obtained from OriGene (MD USA). […] The next day, plate was read on Infinite F500 reader (Magellan Tecan Switzerland). […] The percent activity of each dilution was determined as the ratio of background corrected signal to the background corrected signal of wells receiving only DMSO. IC50 values were determined by fitting percent inhibition data in GraphPad Prism (version-5.01) software.

[5] = biological target: RORα (Homo sapiens, UniProt P35398); experiment: Transactivation assay, Gal4 DBD luciferase reporter (Indigo); format: cell-based
Chain of RORα (P35398 272-523 limits assumed): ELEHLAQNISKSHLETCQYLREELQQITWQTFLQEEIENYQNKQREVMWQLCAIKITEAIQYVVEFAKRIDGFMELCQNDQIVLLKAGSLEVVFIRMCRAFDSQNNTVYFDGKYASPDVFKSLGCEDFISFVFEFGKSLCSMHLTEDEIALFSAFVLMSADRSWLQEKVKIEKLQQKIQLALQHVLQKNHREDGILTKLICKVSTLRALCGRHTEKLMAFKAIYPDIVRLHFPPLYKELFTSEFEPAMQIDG
Text: as §1

[6] = system: IL-17 release from COPD lung BALf cells; experiment: IL-17 release, BALf cells from COPD patients; format: cell-based; settings: Homo sapiens; TCR stimulated, n = 10; read-out: IL-17 IC50, COPD patient's sample: BAL
Procedure: Whole blood and BAL samples from COPD patients were obtained from Multispecialty hospital, Mumbai post approval from ethics committee and informed consent of patients. 30–40 mL Broncho alveolar lavage (BALf) was collected per patient and stored in ice. Blood was collected in heparin vaccutainer as per approved protocol. Both the samples were processed within 2 h of collection. BALF was passed through 100-µm and 40-µm cell strainer to remove debris and mucus, the samples were centrifuged and the cells were re-suspended in RPMI 1640 complete medium. PBMCs from blood were isolated using Histopaque-1077 by density gradient centrifugation. Isolated BAL cells and PBMCs were seeded in 96 well coated with 10 µg/ml anti-CD3 and 2 µg/ml anti-CD2. Cells were further treated with different concentration of test compound for 60 min followed by stimulation with 20 µg/ml anti-CD28 and incubated for 48–72 h. The supernatant was used for estimating IL-17 by ELISA.

[7] = system: IL-17F cytokine from human PBMC; experiment: IL-17F inhibition, human PBMC; format: cell-based; settings: hPBMC, read-out: potency, IL-17F levels
[8] = system: Ca Channel (L type); experiment: Cerep panel, Ca channel (L type)
Text: as §1

Which results are given for CCn1c(C(C)(C)Oc2ccc(F)cc2F)nc2cc(NC(=O)Cc3ccc(S(=O)(=O)CC)cc3)ccc21 [PCCR-1]?
IC50 ([1]; TR-FRET, read-out: IC50 for the rest of the non RORγ isoforms and other major nuclear receptors): > 10000 nM; fold selectivity over other ROR isoforms / nuclear receptors ([1]; relative to RORγ): > 313.7 fold and > 300 fold; % Inhibition RXR ([2]; 1 µM): 0.00%; % Inhibition RXR ([2]; 10 µM): 8.24%; Fold over hRORγ, RXR ([2]; vs RORg IC50 31.87 nM): > 313.7 fold; % Inhibition LXRβ ([3]; 1 µM): 28.11%; % Inhibition LXRβ ([3]; 10 µM): 46.66%; Fold over hRORγ, LXRβ ([3]; vs RORg IC50 31.87 nM): > 313.7 fold; IC50 [4]: 34.5 nM; effect in transactivation assays for RORα inhibition [5]: no effect; IC50 [6]: 522 nM; IC50 [7]: 788 nM; IC50 [8]: 2600 nM
